Data: PMC6979384, “Characterization of the plant homeodomain (PHD) reader family for their histone tail interactions” (Epigenetics & Chromatin, 2020)

Experiments:
Assay in all cases: Histone peptide microarray
Assay type in all cases: binding, human
KDM7A = settings: total n = 4; for Array Heatmap signal, KDM7A: sheet "Array Heatmap", GST-tagged reader, histone peptide array
In short: (§1)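 Readout is array binding signal, reported as the mean and standard deviation over four replicates. Each purified GST-fused PHD domain was incubated at 0.5 μM with a library of 293 modified histone peptides.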

ING1 = settings: total n = 4; for Array Heatmap signal, ING1: sheet "Array Heatmap", GST-tagged reader, histone peptide array
In short: as §1

CHD4 (PPCC) = settings: total n = 4; for Array Heatmap signal, CHD4 (PPCC): sheet "Array Heatmap", GST-tagged reader, histone peptide array
In short: as §1

TRIM66 (PB) = settings: total n = 4; for Array Heatmap signal, TRIM66 (PB): sheet "Array Heatmap", GST-tagged reader, histone peptide array
In short: as §1

PHF21A = settings: total n = 4; for Array Heatmap signal, PHF21A: sheet "Array Heatmap", GST-tagged reader, histone peptide array
In short: as §1

DPF2 (PPC2W2) = settings: total n = 4; for Array Heatmap signal, DPF2 (PPC2W2): sheet "Array Heatmap", GST-tagged reader, histone peptide array
In short: as §1

ING2 = settings: total n = 4; for Array Heatmap signal, ING2: sheet "Array Heatmap", GST-tagged reader, histone peptide array
In short: as §1

SP140L = settings: total n = 4; for Array Heatmap signal, SP140L: sheet "Array Heatmap", GST-tagged reader, histone peptide array
In short: as §1

BAZ2B = settings: total n = 4; for Array Heatmap signal, BAZ2B: sheet "Array Heatmap", GST-tagged reader, histone peptide array
In short: as §1

KDM5B (1) = settings: total n = 4; for Array Heatmap signal, KDM5B (1): sheet "Array Heatmap", GST-tagged reader, histone peptide array
In short: as §1

KDM5A (3) = settings: total n = 4; for Array Heatmap signal, KDM5A (3): sheet "Array Heatmap", GST-tagged reader, histone peptide array
In short: as §1

BPTF (PB) = settings: total n = 4; for Array Heatmap signal, BPTF (PB): sheet "Array Heatmap", GST-tagged reader, histone peptide array
In short: as §1

ING4 = settings: total n = 4; for Array Heatmap signal, ING4: sheet "Array Heatmap", GST-tagged reader, histone peptide array
In short: as §1

RAG2 = settings: total n = 4; for Array Heatmap signal, RAG2: sheet "Array Heatmap", GST-tagged reader, histone peptide array
In short: as §1

ING3 = settings: total n = 4; for Array Heatmap signal, ING3: sheet "Array Heatmap", GST-tagged reader, histone peptide array
In short: as §1

AIRE (PP) = settings: total n = 4; for Array Heatmap signal, AIRE (PP): sheet "Array Heatmap", GST-tagged reader, histone peptide array
In short: as §1

PHF13 = settings: total n = 4; for Array Heatmap signal, PHF13: sheet "Array Heatmap", GST-tagged reader, histone peptide array
In short: as §1

MORC3 (CW) = settings: total n = 4; for Array Heatmap signal, MORC3 (CW): sheet "Array Heatmap", GST-tagged reader, histone peptide array
In short: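 Steps: express and purify GST-tagged PHD reader; incubate 0.5 μM protein on a peptide microarray (293 histone peptides, single or combined PTMs) following an optimized protocol; average signal across 4 replicates.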

KDM5B (3) = settings: total n = 4; for Array Heatmap signal, KDM5B (3): sheet "Array Heatmap", GST-tagged reader, histone peptide array
In short: as §1

PHF8 = settings: total n = 4; for Array Heatmap signal, PHF8: sheet "Array Heatmap", GST-tagged reader, histone peptide array
In short: as §1

KDM4C (TTP) = settings: total n = 4; for Array Heatmap signal, KDM4C (TTP): sheet "Array Heatmap", GST-tagged reader, histone peptide array
In short: as §1

MLL5 = settings: total n = 4; for Array Heatmap signal, MLL5: sheet "Array Heatmap", GST-tagged reader, histone peptide array
In short: as §1

CHD5 (PPCC) = settings: total n = 4; for Array Heatmap signal, CHD5 (PPCC): sheet "Array Heatmap", GST-tagged reader, histone peptide array
In short: as §1

PHF2 = settings: total n = 4; for Array Heatmap signal, PHF2: sheet "Array Heatmap", GST-tagged reader, histone peptide array
In short: as §1

PHRF1 (RP) = settings: total n = 4; for Array Heatmap signal, PHRF1 (RP): sheet "Array Heatmap", GST-tagged reader, histone peptide array
In short: as §1

TAF3 = settings: total n = 4; for Array Heatmap signal, TAF3: sheet "Array Heatmap", GST-tagged reader, histone peptide array
In short: as §1

CHD5 (PCC) = settings: total n = 4; for Array Heatmap signal, CHD5 (PCC): sheet "Array Heatmap", GST-tagged reader, histone peptide array
In short: as §1

DIDO1 = settings: total n = 4; for Array Heatmap signal, DIDO1: sheet "Array Heatmap", GST-tagged reader, histone peptide array
In short: as §1

KDM5A (1) = settings: total n = 4; for Array Heatmap signal, KDM5A (1): sheet "Array Heatmap", GST-tagged reader, histone peptide array
In short: as §1

ING5 = settings: total n = 4; for Array Heatmap signal, ING5: sheet "Array Heatmap", GST-tagged reader, histone peptide array
In short: as §1

PHF23 = settings: total n = 4; for Array Heatmap signal, PHF23: sheet "Array Heatmap", GST-tagged reader, histone peptide array
In short: as §1

## H3R17me2a: H3 1-20 [Peptide H3R17me2a]
KDM7A
  Array Heatmap signal, KDM7A: 0.2428
ING1
  Array Heatmap signal, ING1: 0.5124
CHD4 (PPCC)
  Array Heatmap signal, CHD4 (PPCC): 0.4461
TRIM66 (PB)
  Array Heatmap signal, TRIM66 (PB): 0.5152
PHF21A
  Array Heatmap signal, PHF21A: 0.2924
DPF2 (PPC2W2)
  Array Heatmap signal, DPF2 (PPC2W2): 0.5665
ING2
  Array Heatmap signal, ING2: 0.6139
SP140L
  Array Heatmap signal, SP140L: 0.2774
BAZ2B
  Array Heatmap signal, BAZ2B: 0.3052
KDM5B (1)
  Array Heatmap signal, KDM5B (1): 0.4837
KDM5A (3)
  Array Heatmap signal, KDM5A (3): 0.5532
BPTF (PB)
  Array Heatmap signal, BPTF (PB): 0.2765
ING4
  Array Heatmap signal, ING4: 0.3252
RAG2
  Array Heatmap signal, RAG2: 0.3136
ING3
  Array Heatmap signal, ING3: 0.3691
AIRE (PP)
  Array Heatmap signal, AIRE (PP): 0.3243
PHF13
  Array Heatmap signal, PHF13: 0.4423
MORC3 (CW)
  Array Heatmap signal, MORC3 (CW): 0.4952
KDM5B (3)
  Array Heatmap signal, KDM5B (3): 0.4098
PHF8
  Array Heatmap signal, PHF8: 0.337
KDM4C (TTP)
  Array Heatmap signal, KDM4C (TTP): 0.2915
MLL5
  Array Heatmap signal, MLL5: 0.5506
CHD5 (PPCC)
  Array Heatmap signal, CHD5 (PPCC): 0.3709
PHF2
  Array Heatmap signal, PHF2: 0.6186
PHRF1 (RP)
  Array Heatmap signal, PHRF1 (RP): 0.5177
TAF3
  Array Heatmap signal, TAF3: 0.2956
CHD5 (PCC)
  Array Heatmap signal, CHD5 (PCC): 0.5481
DIDO1
  Array Heatmap signal, DIDO1: 0.6933
KDM5A (1)
  Array Heatmap signal, KDM5A (1): 0.3023
ING5
  Array Heatmap signal, ING5: 0.2247
PHF23
  Array Heatmap signal, PHF23: 0.499

## H3R17me2s: H3 1-20 [Peptide H3R17me2s]
KDM7A
  Array Heatmap signal, KDM7A: 0.306
ING1
  Array Heatmap signal, ING1: 0.5076
CHD4 (PPCC)
  Array Heatmap signal, CHD4 (PPCC): 0.5449
TRIM66 (PB)
  Array Heatmap signal, TRIM66 (PB): 0.6637
PHF21A
  Array Heatmap signal, PHF21A: 0.4345
DPF2 (PPC2W2)
  Array Heatmap signal, DPF2 (PPC2W2): 0.6998
ING2
  Array Heatmap signal, ING2: 0.6161
SP140L
  Array Heatmap signal, SP140L: 0.3428
BAZ2B
  Array Heatmap signal, BAZ2B: 0.4477
KDM5B (1)
  Array Heatmap signal, KDM5B (1): 0.601
KDM5A (3)
  Array Heatmap signal, KDM5A (3): 0.5756
BPTF (PB)
  Array Heatmap signal, BPTF (PB): 0.3293
ING4
  Array Heatmap signal, ING4: 0.4307
RAG2
  Array Heatmap signal, RAG2: 0.2456
ING3
  Array Heatmap signal, ING3: 0.447
AIRE (PP)
  Array Heatmap signal, AIRE (PP): 0.4113
PHF13
  Array Heatmap signal, PHF13: 0.5969
MORC3 (CW)
  Array Heatmap signal, MORC3 (CW): 0.5429
KDM5B (3)
  Array Heatmap signal, KDM5B (3): 0.5222
PHF8
  Array Heatmap signal, PHF8: 0.3293
KDM4C (TTP)
  Array Heatmap signal, KDM4C (TTP): 0.4268
MLL5
  Array Heatmap signal, MLL5: 0.5344
CHD5 (PPCC)
  Array Heatmap signal, CHD5 (PPCC): 0.5108
PHF2
  Array Heatmap signal, PHF2: 0.5815
PHRF1 (RP)
  Array Heatmap signal, PHRF1 (RP): 0.8026
TAF3
  Array Heatmap signal, TAF3: 0.274
CHD5 (PCC)
  Array Heatmap signal, CHD5 (PCC): 0.7264
DIDO1
  Array Heatmap signal, DIDO1: 0.6492
KDM5A (1)
  Array Heatmap signal, KDM5A (1): 0.4442
ING5
  Array Heatmap signal, ING5: 0.3275
PHF23
  Array Heatmap signal, PHF23: 0.5417

## H3T3p + K4me3: H3 1-20
KDM7A; GST-tagged KDM7A, sheet Array Heatmap, each array performed twice
  Array Heatmap signal (histone peptide microarray): 0.3295
ING1; GST-tagged ING1, sheet Array Heatmap, each array performed twice
  Array Heatmap signal (histone peptide microarray): 0.5588
CHD4 (PPCC); GST-tagged CHD4 (PPCC = Dual PHD + Dual Chromodomain), sheet Array Heatmap, each array performed twice
  Array Heatmap signal (histone peptide microarray): 0.624
TRIM66 (PB); GST-tagged TRIM66 (PB = PHD + Bromodomain), sheet Array Heatmap, each array performed twice
  Array Heatmap signal (histone peptide microarray): 0.5989
PHF21A; GST-tagged PHF21A, sheet Array Heatmap, each array performed twice
  Array Heatmap signal (histone peptide microarray): 0.4603
DPF2 (PPC2W2); GST-tagged DPF2 (PPC2W2 = Dual PHD + C2W2-type Zn-finger), sheet Array Heatmap, each array performed twice
  Array Heatmap signal (histone peptide microarray): 0.6866
ING2; GST-tagged ING2, sheet Array Heatmap, each array performed twice
  Array Heatmap signal (histone peptide microarray): 0.6632
SP140L; GST-tagged SP140L, sheet Array Heatmap, each array performed twice
  Array Heatmap signal (histone peptide microarray): 0.3246
BAZ2B; GST-tagged BAZ2B, sheet Array Heatmap, each array performed twice
  Array Heatmap signal (histone peptide microarray): 0.4608
KDM5B (1); GST-tagged KDM5B (1), sheet Array Heatmap, each array performed twice
  Array Heatmap signal (histone peptide microarray): 0.6609
KDM5A (3); GST-tagged KDM5A (3), sheet Array Heatmap, each array performed twice
  Array Heatmap signal (histone peptide microarray): 0.5826
BPTF (PB); GST-tagged BPTF (PB = PHD + Bromodomain), sheet Array Heatmap, each array performed twice
  Array Heatmap signal (histone peptide microarray): 0.35
ING4; GST-tagged ING4, sheet Array Heatmap, each array performed twice
  Array Heatmap signal (histone peptide microarray): 0.4716
RAG2; GST-tagged RAG2, sheet Array Heatmap, each array performed twice
  Array Heatmap signal (histone peptide microarray): 0.2672
ING3; GST-tagged ING3, sheet Array Heatmap, each array performed twice
  Array Heatmap signal (histone peptide microarray): 0.4764
AIRE (PP); GST-tagged AIRE (PP), sheet Array Heatmap, each array performed twice
  Array Heatmap signal (histone peptide microarray): 0.3968
PHF13; GST-tagged PHF13, sheet Array Heatmap, each array performed twice
  Array Heatmap signal (histone peptide microarray): 0.62
MORC3 (CW); GST-tagged MORC3 (CW = CW-type Zn-finger), sheet Array Heatmap, each array performed twice
  Array Heatmap signal (histone peptide microarray): 0.5559
KDM5B (3); GST-tagged KDM5B (3), sheet Array Heatmap, each array performed twice
  Array Heatmap signal (histone peptide microarray): 0.5163
PHF8; GST-tagged PHF8, sheet Array Heatmap, each array performed twice
  Array Heatmap signal (histone peptide microarray): 0.3669
KDM4C (TTP); GST-tagged KDM4C (TTP = Tandem Tudor domain + PHD), sheet Array Heatmap, each array performed twice
  Array Heatmap signal (histone peptide microarray): 0.4706
MLL5; GST-tagged MLL5, sheet Array Heatmap, each array performed twice
  Array Heatmap signal (histone peptide microarray): 0.5412
CHD5 (PPCC); GST-tagged CHD5 (PPCC = Dual PHD + Dual Chromodomain), sheet Array Heatmap, each array performed twice
  Array Heatmap signal (histone peptide microarray): 0.5481
PHF2; GST-tagged PHF2, sheet Array Heatmap, each array performed twice
  Array Heatmap signal (histone peptide microarray): 0.5905
PHRF1 (RP); GST-tagged PHRF1 (RP), sheet Array Heatmap, each array performed twice
  Array Heatmap signal (histone peptide microarray): 0.4433
TAF3; GST-tagged TAF3, sheet Array Heatmap, each array performed twice
  Array Heatmap signal (histone peptide microarray): 0.2953
CHD5 (PCC); GST-tagged CHD5 (PCC = PHD + Dual Chromodomain), sheet Array Heatmap, each array performed twice
  Array Heatmap signal (histone peptide microarray): 0.7821
DIDO1; GST-tagged DIDO1, sheet Array Heatmap, each array performed twice
  Array Heatmap signal (histone peptide microarray): 0.6916
KDM5A (1); GST-tagged KDM5A (1), sheet Array Heatmap, each array performed twice
  Array Heatmap signal (histone peptide microarray): 0.462
ING5; GST-tagged ING5, sheet Array Heatmap, each array performed twice
  Array Heatmap signal (histone peptide microarray): 0.3533
PHF23; GST-tagged PHF23, sheet Array Heatmap, each array performed twice
  Array Heatmap signal (histone peptide microarray): 0.5295
